Where two headings read alike, the source gives them in different places.
What was measured:
[1] = molecular target: T1, AIM2 inflammasome (Mus musculus, UniProt Q91VJ1); assay: AIM2 inflammasome activation assay: IL-1β release, microglia from NLRP3 KO mice, LPS and poly(dA:dT); type: cell-based
T1 construct: endogenous in cells; host or cells: primary microglia from NLRP3 KO mice
T1 sequence (Q91VJ1 1-354): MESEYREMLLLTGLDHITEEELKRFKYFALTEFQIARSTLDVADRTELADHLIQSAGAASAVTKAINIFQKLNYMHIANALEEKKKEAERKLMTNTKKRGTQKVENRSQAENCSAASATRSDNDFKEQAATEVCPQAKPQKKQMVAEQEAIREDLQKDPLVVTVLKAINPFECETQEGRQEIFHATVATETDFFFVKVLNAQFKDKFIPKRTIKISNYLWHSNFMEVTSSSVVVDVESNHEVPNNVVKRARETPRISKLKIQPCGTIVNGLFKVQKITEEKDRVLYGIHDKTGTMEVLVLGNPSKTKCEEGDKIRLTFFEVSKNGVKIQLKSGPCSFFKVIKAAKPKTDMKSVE
Method: AIM2, NLRP7, and NLRC4 inflammasomes activation assays. Microglia from NLRP3 KO mice were pre-treated with 100 μM C75, C78, C97, or C77, during one hour. AIM2 inflammasome activation was induced through the addition of 100 ng/ml LPS for 2 hours, followed by transfection of 1 μg poly(dA:dT) using Lipofectamine 2000 during 2 hours, following the manufacturer recommendations. NLRC4 was activated by treatment with 150 ng/ml LPS for 2 hours, before transfection of 1 μg flagellin during 2 hours, using lipofectamine 2000 as transfection reagent. Negative and positive controls were pre-treated with the same DMSO percentage as cells treated with the inhibitors. Negative controls were kept untreated after DMSO addition, while LPS-poly(dA:dT) or LPS-flagellin was added to positive controls for AIM2, and NLRC4 activation, respectively. For activation of the NLRP7 inflammasome different conditions were assessed: treatment of WT microglia cultures with 400 ng/ml fibroblast-stimulating lipopeptide-1 (fsl-1) for 7 hours, priming with 150 ng/ml LPS for 1 hour and treatment with 400 ng/ml fsl-1 for 7 hours, and priming with 150 ng/ml LPS and transfection of 400 ng/ml fsl-1 with lipofectamine. MCC950 was used as a negative control for NLRC4 and AIM-2 inhibition. […]
Cytokine quantification. […] IL-1β precursor and cleaved IL-1β in the FC of mice treated with vehicles, LPS, or C77-LPS was assessed by western blot. […]

[2] = molecular target: T2, NLRP3 inflammasome (Mus musculus, UniProt Q8R4B8); assay: NLRP3 inflammasome activation assay: IL-1β release by primary microglia after LPS and ATP; type: cell-based, murine
T2 construct: endogenous in cells; host or cells: primary microglia from cortices of 2-3 day old WT mouse pups
T2 sequence (Q8R4B8 whole entry): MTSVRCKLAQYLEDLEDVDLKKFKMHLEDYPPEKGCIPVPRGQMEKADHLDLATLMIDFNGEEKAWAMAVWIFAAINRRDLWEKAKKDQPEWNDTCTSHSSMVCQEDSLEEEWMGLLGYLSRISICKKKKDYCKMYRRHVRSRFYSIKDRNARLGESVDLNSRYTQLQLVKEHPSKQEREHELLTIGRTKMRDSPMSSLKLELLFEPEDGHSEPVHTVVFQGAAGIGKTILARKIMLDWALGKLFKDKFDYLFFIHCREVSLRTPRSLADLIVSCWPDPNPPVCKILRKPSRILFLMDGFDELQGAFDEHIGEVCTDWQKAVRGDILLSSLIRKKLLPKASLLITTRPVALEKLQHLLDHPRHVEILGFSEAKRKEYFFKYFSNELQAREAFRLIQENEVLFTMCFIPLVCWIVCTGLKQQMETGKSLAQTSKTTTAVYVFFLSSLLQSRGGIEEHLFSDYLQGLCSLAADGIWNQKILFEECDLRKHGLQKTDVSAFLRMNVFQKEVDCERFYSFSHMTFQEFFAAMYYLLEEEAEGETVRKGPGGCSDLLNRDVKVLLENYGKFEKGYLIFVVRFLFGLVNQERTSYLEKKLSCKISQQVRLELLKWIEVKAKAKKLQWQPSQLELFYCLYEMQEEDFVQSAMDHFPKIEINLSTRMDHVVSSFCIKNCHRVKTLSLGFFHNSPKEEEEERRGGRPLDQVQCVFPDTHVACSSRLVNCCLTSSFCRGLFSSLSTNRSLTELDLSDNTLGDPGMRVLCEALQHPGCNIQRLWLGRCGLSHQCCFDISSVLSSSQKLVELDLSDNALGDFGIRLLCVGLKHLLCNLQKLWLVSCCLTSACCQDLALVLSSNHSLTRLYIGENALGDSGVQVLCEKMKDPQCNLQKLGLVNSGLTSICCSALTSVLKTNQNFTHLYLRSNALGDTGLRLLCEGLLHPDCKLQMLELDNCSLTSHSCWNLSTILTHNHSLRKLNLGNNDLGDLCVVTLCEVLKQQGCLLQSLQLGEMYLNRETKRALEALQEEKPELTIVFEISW
Method: Murine primary microglia. Mixed cortical cultures were prepared as previously described (Bronstein, R. et al. J. Vis. Exp. JoVE 50647 (2013) doi:10.3791/50647). Briefly, cortices from 2-3 days old, WT, or NLRP3 KO pups were isolated, digested, and seeded at a density of 8 cortices per 10 ml petri dish. Every three days, the medium was replaced by fresh culture medium (DMEM, 10% FBS, 1% penicillin-streptomycin). After three weeks, mixed glial cultures had reached confluence, and microglia cells were isolated by mild trypsinization as previously described (Saura, J. et al. Glia 44, 183-189 (2003)). In brief, cells were washed with culture medium without FBS and treated with a mixture of trypsin 0.25% (without EDTA) and DMEM-F12 medium in a 1:3 proportion. After an incubation period of approximately 40 min, an intact layer of mixed glial cells detached, leaving microglia attached firmly to the bottom of the Petri-dish. Pure microglia were then isolated by 15 min incubation with trypsin (0.05%)-EDTA at 37° C., followed by gentle shaking. Cells were counted and seeded at the desired density, typically 7.5·10^4 cells/well in 24 well-plates.
NLRP3 inflammasome activation assay. Primary microglia cultures were incubated with the compounds that inhibited IL-1β production in THP1 macrophages. Cells pretreated with 100 μM of the compounds—or with the same DMSO volume, in the case of control samples—were primed with 400 ng/ml LPS for 3 hours, and activated with 4.5 mM ATP for 45 minutes or […] nigericin for 1 hour. Dose-response curves were conducted by incubating microglia cultures with different concentrations of the selected compounds, ranging from 0.001 to 100 μM, 1 hour before NLRP3 activation with LPS and ATP. Supernatants were collected for IL-1β and toxicity assessments.
(§1) Cytokine quantification. IL-1β in cell supernatants and brain tissue samples—after the different treatment groups—was quantified using the Mouse IL-1 beta/IL-1F2 DuoSet ELISA kit (R&D systems), IL-6 in cell culture supernatant was measured through the Mouse IL-6 ELISA kit (ThermoFisher), TNF-α in cell culture supernatants was determined using the Mouse TNF-alpha DuoSet ELISA (R*D systems), and IL-18 in brain tissue was measured through the IL-18 Mouse ELISA Kit (Invitrogen) following the manufacturers' recommended protocol. IL-1β precursor and cleaved IL-1β in the FC of mice treated with vehicles, LPS, or C77-LPS was assessed by western blot. All samples were run in technical duplicates.

[3] = molecular target: T3, NLRC4 inflammasome (Mus musculus, UniProt Q3UP24); assay: NLRC4 inflammasome activation assay: IL-1β release, microglia from NLRP3 KO mice, LPS and flagellin; type: cell-based; details: FIG. 3A
T3 construct: endogenous in cells; host or cells: primary microglia from NLRP3 KO mice
T3 sequence (Q3UP24 whole entry): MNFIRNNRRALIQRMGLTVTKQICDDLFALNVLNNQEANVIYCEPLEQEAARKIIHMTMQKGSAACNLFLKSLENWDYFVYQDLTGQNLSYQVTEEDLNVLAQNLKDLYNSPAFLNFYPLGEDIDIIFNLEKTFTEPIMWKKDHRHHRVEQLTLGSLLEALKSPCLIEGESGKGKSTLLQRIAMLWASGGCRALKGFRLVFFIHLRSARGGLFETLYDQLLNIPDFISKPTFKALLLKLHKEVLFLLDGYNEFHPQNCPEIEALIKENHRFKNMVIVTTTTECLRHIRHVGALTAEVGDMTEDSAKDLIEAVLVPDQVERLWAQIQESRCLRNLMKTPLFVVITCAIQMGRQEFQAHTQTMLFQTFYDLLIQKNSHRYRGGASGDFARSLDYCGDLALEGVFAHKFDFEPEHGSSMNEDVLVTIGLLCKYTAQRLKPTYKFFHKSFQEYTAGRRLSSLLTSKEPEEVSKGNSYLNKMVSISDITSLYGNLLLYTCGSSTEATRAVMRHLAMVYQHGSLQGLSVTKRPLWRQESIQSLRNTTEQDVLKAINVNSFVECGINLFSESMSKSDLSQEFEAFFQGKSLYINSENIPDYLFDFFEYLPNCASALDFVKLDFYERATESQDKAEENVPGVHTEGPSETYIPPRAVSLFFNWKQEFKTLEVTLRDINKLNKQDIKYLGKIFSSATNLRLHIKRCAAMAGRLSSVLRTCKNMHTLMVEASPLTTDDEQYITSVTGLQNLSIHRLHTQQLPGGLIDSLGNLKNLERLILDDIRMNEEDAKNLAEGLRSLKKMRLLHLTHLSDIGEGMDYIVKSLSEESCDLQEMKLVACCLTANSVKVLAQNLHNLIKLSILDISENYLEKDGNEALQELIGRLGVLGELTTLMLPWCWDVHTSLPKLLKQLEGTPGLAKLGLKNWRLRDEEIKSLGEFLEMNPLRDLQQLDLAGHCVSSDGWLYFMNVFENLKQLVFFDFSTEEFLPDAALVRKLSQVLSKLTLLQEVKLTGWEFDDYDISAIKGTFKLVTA
Method: AIM2, NLRP7, and NLRC4 inflammasomes activation assays. […] AIM2 inflammasome activation was induced through the addition of 100 ng/ml LPS for 2 hours, followed by transfection of 1 μg poly(dA:dT) using Lipofectamine 2000 during 2 hours, following the manufacturer recommendations. NLRC4 was activated by treatment with 150 ng/ml LPS for 2 hours, before transfection of 1 μg flagellin during 2 hours, using lipofectamine 2000 as transfection reagent. Negative and positive controls were pre-treated with the same DMSO percentage as cells treated with the inhibitors. Negative controls were kept untreated after DMSO addition, while LPS-poly(dA:dT) or LPS-flagellin was added to positive controls for AIM2, and NLRC4 activation, respectively. For activation of the NLRP7 inflammasome different conditions were assessed: treatment of WT microglia cultures with 400 ng/ml fibroblast-stimulating lipopeptide-1 (fsl-1) for 7 hours, priming with 150 ng/ml LPS for 1 hour and treatment with 400 ng/ml fsl-1 for 7 hours, and priming with 150 ng/ml LPS and transfection of 400 ng/ml fsl-1 with lipofectamine. MCC950 was used as a negative control for NLRC4 and AIM-2 inhibition. Cells were pretreated with 5 μM MCC950 before LPS addition, and 2 hours later the NLRC4 and AIM-2 activation was induced through addition of their specific activators. Cell supernatants were collected for IL-1β measurement.
as §1

inhibition of AIM2-mediated IL-1β release [1]: did not inhibit | concentrations exerting inhibitory effects on NLRP3-mediated IL-1β ([2]; FIG. 2C, microglia, LPS and ATP): ≥ 100 nM | IC50 ([2]; FIG. 3A, read-out: NLRP3 IC50): 3.54 ± 1.3 µM | [Cx] to reach 100% of inhibition ([2]; IL-1β release, microglia, LPS and ATP): lower than 25 μM | IC50 ([2]; IL-1β release, microglia, LPS and ATP, nonlinear fit of dose-response, read-out: IC50): 4.1 ± 2.1 µM | IC50 [3]: 4.15 ± 1.65 µM
SMILES: O=C(Cn1c(=O)oc2ccccc21)NCc1cncc(-c2ccsc2)c1 [Compound C77]
inhibition of IL-1β release upon NLRP3 activation ([2]; 100 μM compound, microglia, LPS and ATP): inhibited NLRP3 with statistical significance

Reference: patent US20240158386A1, “BENZOXAZOLONE INHIBITORS OF INFLAMMASOMES” (ICAHN SCHOOL OF MEDICINE AT MOUNT SINAI, priority 2021, published 2024)
